Results published in patent publication US20100021895A1, “Vectors for Inducing Homozygous Mutations and Methods of Using Same” (priority 2006, published 2010).

Test system: mouse embryonic stem cell clones, each containing a neomycin resistance gene (Neo) inserted by the GTR1.3 gene trap retrovirus
Experiment: Carcinogen-induced LOH: frequency of colony formation in 2.0 mg/ml G418
Assay type: cell-based
Details: for fold increase of frequency of colony formation: 2 mg/ml G418 0.5 mM MNU
Procedure: Carcinogen-induced LOH was measured in a panel of 53 mouse embryonic stem cell clones, each containing a neomycin resistance gene (Neo) inserted into a different cellular gene (FIG. 9) by the GTR1.3 gene trap retrovirus. Gene entrapment by GTR1.3 involves selection for inserted Neo sequences that can splice to the 3′ ends of cellular genes (Lin et al.,). The disrupted genes were identified by sequencing Neo-gene fusion transcripts and were localized on the mouse genome. Previous studies have shown that cells homozygous for GTR1.3-induced mutations can be selected from heterozygous cells simply by selecting for resistance to higher concentrations of G418, a method first shown to select for homozygous mutations induced by gene targeting (15). Mitotic recombination appears to be the preferred mechanism of spontaneous LOH involving Neo genes inserted in ES cells (17) and LOH involving other genes and cell types in vivo (12, 13). LOH doubles the number of Neo genes per cell and thus allows moderately resistant cells to acquire resistance to higher concentrations of G418. The frequencies of spontaneous LOH measured at the 53 different sites ranged from 1.3×10^−5 to 1.2×10^−4 (Table 3), similar to those reported for other inserted neomycin resistance genes (15, 17) in ES cells and for loci such as TK and APRT in other cell types (12, 13).
A variety of chemical agents were tested for their ability to enhance the frequencies at which mutant cells survive in 2.0 mg/ml G418. Methyl-nitrosurea (MNU) is an alkylating agent that produces a variety of mono-methylated DNA adducts, hydroxyurea (HU) stalls DNA replication complexes, doxorubicin interferes with DNA synthesis, methothrexate is a competitive inhibitor of dihydrofolate reductase but is not genotoxic, diepoxybutane and mitomycin C induce inter-strand DNA crosslinks, UV irradiation causes intra- and inter-strand pyrimidine dimmers, and ethidium bromide intercalates between DNA strands to damage DNA (For additional information about these agents see http://toxnet.nlm.nih.gov and http://lisntweb.swan.ac.uk/cmgt/index.htm). […] The fold-increase for MNU and HU ranged from 39-123 and 18-68, respectively (Table 3). The optimal concentrations of each agent to stimulate colony formation with minimal toxicity (<5% loss of cell viability) were determined in advance (FIG. 13). […] Each of these agents was tested two or more times on at least 25 entrapment lines.
Serially diluted cells were plated onto 150 mm plates containing drug-free media and allowed to attach overnight. Unattached cells were removed and media containing the indicated concentrations of methyl-nitrosourea, hydroxyurea, ethidium bromide, doxorubicin, methotrexate, diepoxybutane, or mitomycin C was put onto cells for 4 hours (or cells were exposed to ultraviolet light in the absence of media and allowed to recover in drug-free media for 4 hours). Cells were then rinsed twice with drug-free media and selection media containing 0.0, 0.3, or 2.0 mg/ml G418 was put onto cells. After 12 days of selection, the number of colonies surviving was counted and the frequency of colony formation was determined by dividing the number of colonies obtained from 2.0 mg/ml G418 selection to that obtained from parallel experiments with 0.3 mg/ml G418 selection. TK gene loss was assessed following selection in media containing 2 μg/ml gancyclovir.
Table 3. The frequency of colony formation in high concentrations of G418. The frequency of colony formation is listed for all 53 clones examined. Frequency was determined by dividing the number of colonies surviving 2.0 mg/ml G418 selection to the number surviving parallel experiments with 0.3 mg/ml G418 selection, and is the average of at least 3 independent experiments for each clone. Standard deviations, which ranged from 5 to 70% of the mean values, have been omitted for clarity. […]

## CN(N=O)C(N)=O [MNU, methyl-nitrosourea]
0.5 mM MNU or 0.25 mM HU (FIG. 10)
  number of colonies surviving in high G418: dramatically increased
0.5 mM MNU, Table 3 clones
  fold-increase of colonies surviving in high G418, range over clones: 39-123 fold
Clone b2p1-a5 (12C3)
  fold increase of frequency of colony formation: (+61-fold)
Clone b2p1-a9 (2H1)
  fold increase of frequency of colony formation: (+53-fold)
Clone b2p1-b4 (9E1)
  fold increase of frequency of colony formation: (+53-fold)
Clone b2p1-b9 (4B1)
  fold increase of frequency of colony formation: (+59-fold)
Clone b2p1-c6 (19A)
  fold increase of frequency of colony formation: (+39-fold)
Clone b2p1-d3 (19C1)
  fold increase of frequency of colony formation: (+41-fold)
Clone b2p1-d8 (4D2.3)
  fold increase of frequency of colony formation: (+52-fold)
Clone b2p1-d9 (7E3)
  fold increase of frequency of colony formation: (+75-fold)
Clone b2p1-d10 (9A1)
  fold increase of frequency of colony formation: (+76-fold)
Clone b2p1-e3 (4D2.3)
  fold increase of frequency of colony formation: (+54-fold)
Clone b2p1-e10 (19C1)
  fold increase of frequency of colony formation: (+54-fold)
Clone b2p1-f3 (17E1.3)
  fold increase of frequency of colony formation: (+51-fold)
Clone b2p1-f10 (3F2.1)
  fold increase of frequency of colony formation: (+91-fold)
Clone b2p1-f12 (1H5)
  fold increase of frequency of colony formation: (+77-fold)
Clone b2p1-h1 (7A2)
  fold increase of frequency of colony formation: (+63-fold)
Clone b2p1-h5 (1H5)
  fold increase of frequency of colony formation: (+75-fold)
Clone b2p1-h8 (6A3.3)
  fold increase of frequency of colony formation: (+68-fold)
Clone b3p1-h1 (18E2)
  fold increase of frequency of colony formation: (+55-fold)
Clone b3p3-a4 (4A5)
  fold increase of frequency of colony formation: (+78-fold)
Clone b3p3-a9 (4A5)
  fold increase of frequency of colony formation: (+49-fold)
Clone b3p3-b6 (3F1)
  fold increase of frequency of colony formation: (+60-fold)
Clone b3p3-c8 (14A3)
  fold increase of frequency of colony formation: (+73-fold)
Clone b3p3-c12 (5G2)
  fold increase of frequency of colony formation: (+29-fold)
Clone b3p3-d4 (1C3)
  fold increase of frequency of colony formation: (+43-fold)
Clone b3p3-d8 (1C2)
  fold increase of frequency of colony formation: (+123-fold)
Clone b3p3-d9 (4E2)
  fold increase of frequency of colony formation: (+89-fold)
Clone b3p3-g6 (10C2)
  fold increase of frequency of colony formation: (+59-fold)
Clone b3p3-g10 (4E1)
  fold increase of frequency of colony formation: (+58-fold)
Clone b3p3-h2 (19C1)
  fold increase of frequency of colony formation: (+73-fold)
Clone b3p3-h4 (5E2)
  fold increase of frequency of colony formation: (+70-fold)
Clone b3p3-h8 (19A)
  fold increase of frequency of colony formation: (+105-fold)
Clone b3p4-a1 (4A4)
  fold increase of frequency of colony formation: (+69-fold)
Clone b3p4-a5 (3B)
  fold increase of frequency of colony formation: (+47-fold)
Clone b3p4-b1 (3A2)
  fold increase of frequency of colony formation: (+45-fold)
Clone b3p4-b2 (11B1.3)
  fold increase of frequency of colony formation: (+54-fold)
Clone b3p4-b8 (4C6)
  fold increase of frequency of colony formation: (+63-fold)
Clone b3p4-b12 (3A1)
  fold increase of frequency of colony formation: (+52-fold)
Clone b3p4-c1 (17B3)
  fold increase of frequency of colony formation: (+69-fold)
Clone b3p4-c2 (8C3)
  fold increase of frequency of colony formation: (+76-fold)
Clone b3p4-c9 (15F2)
  fold increase of frequency of colony formation: (+39-fold)
Clone b3p4-c12 (17E2)
  fold increase of frequency of colony formation: (+74-fold)
Clone b3p4-d10 (14E5)
  fold increase of frequency of colony formation: (+88-fold)
Clone b3p4-d12 (1C3)
  fold increase of frequency of colony formation: (+82-fold)
Clone b3p4-e1 (2G3)
  fold increase of frequency of colony formation: (+65-fold)
Clone b3p4-e3 (15D3)
  fold increase of frequency of colony formation: (+73-fold)
Clone b3p4-e7 (12C1)
  fold increase of frequency of colony formation: (+43-fold)
Clone b3p4-f2 (4E1)
  fold increase of frequency of colony formation: (+55-fold)
Clone b3p4-f6 (7E3)
  fold increase of frequency of colony formation: (+48-fold)
Clone b3p4-f10 (8A4)
  fold increase of frequency of colony formation: (+81-fold)
Clone b3p4-g3 (1C3)
  fold increase of frequency of colony formation: (+81-fold)
Clone b3p4-g8 (10C1)
  fold increase of frequency of colony formation: (+75-fold)
Clone b3p4-g9 (2C2)
  fold increase of frequency of colony formation: (+65-fold)
Clone b3p4-h11 (8A1.1)
  fold increase of frequency of colony formation: (+65-fold)
ES cells heterozygous for Xrcc5 entrapment mutation, 4 hours with 0.5 mM methyl-nitrosourea, 0.25 mM hydroxyurea or 100 ng/ml diepoxybutane
  survival of mutant ES cells in media containing 2.0 mg/ml G418: enhances the survival
Single exposure to non-toxic levels
  overall extent of LOH induced: ~1 % of the genome
